Measured values published in patent publication US20100061928A1, “LABELLED ANALOGUES OF HALOBENZAMIDES AS RADIOPHARMACEUTICALS” (Institut National De La Sante et De La Recherche Medicale …, priority 2006, published 2010).
Where a name gives a salt, the structure may show the parent alone.

Tests used:
[1] = Elimination of the molecules: cumulative urinary and faecal excretion 0-72 hours; format: in vivo, mouse; details: for Faecal elimination 0-72 hours (Faeces) / Urinary and faecal elimination 0-72 hours (Total) / Urinary elimination 0-72 hours (Urine): cumulative excretion 0-72 hours; for Faecal elimination 0-72 hours (Faeces) / Urinary elimination 0-72 hours (Urine): mice in metabolic cages; for Urinary and faecal elimination 0-72 hours (Total): urine + faeces
tumour = assay: Dosimetry with regard to the tumour (MIRD programme, extrapolated to ^131I); details: for Effective period: extrapolated to 131I labelling; for Biological period: from biodistribution data
[2] = test system: grafted B16 F0 murine melanoma tumour; assay: Biodistribution of the ^125I-labelled molecules in the melanoma-bearing mouse (autoradiography of whole-body sections); details: for Biodistribution, Mean, B 16: B 16 tumour; for tumour concentration, times higher than with BZA: at 72 hours (FIG. 1B); for tumour concentration, % of the injected dose per gram of tumour: from the first hour

CCN(CC)CCNC(=O)c1cc2c(I)cccc2cn1 [compound 39, N-(2-diethylaminoethyl)-5-iodoisoquinoline-3-carboxamide dihydrochloride]
Faecal elimination 0-72 hours (Faeces) [1]: 21.2% | Urinary and faecal elimination 0-72 hours (Total) [1]: 71.1% | Urinary elimination 0-72 hours (Urine) [1]: 49.9% | Effective period (tumour): 43.6 h | Biological period (tumour): 56.3 hours | Biodistribution, Mean, B 16 ([2]; 1 H): 7.27 | Biodistribution, Mean, B 16 ([2]; 3 H): 7.12 | Biodistribution, Mean, B 16 ([2]; 6 H): 7.92 | Biodistribution, Mean, B 16 ([2]; 24 H): 7.05 | Biodistribution, Mean, B 16 ([2]; 72 H): 3.13 | Biodistribution, Mean, Ic ([2]; 1 H): 42.97 | Biodistribution, Mean, Ic ([2]; 3 H): 68.64 | Biodistribution, Mean, Ic ([2]; 6 H): 29.16 | Biodistribution, Mean, Ic ([2]; 24 H): 1.70 | Biodistribution, Mean, Sc ([2]; 1 H): 23.01 | Biodistribution, Mean, Sc ([2]; 3 H): 19.05 | Biodistribution, Mean, Sc ([2]; 6 H): 28.44 | Biodistribution, Mean, Sc ([2]; 24 H): 0.75 | Biodistribution, Mean, blood ([2]; 1 H): 2.15 | Biodistribution, Mean, blood ([2]; 3 H): 2.65 | Biodistribution, Mean, blood ([2]; 6 H): 2.17 | Biodistribution, Mean, brain ([2]; 1 H): 0.30 | Biodistribution, Mean, brain ([2]; 3 H): 0.09 | Biodistribution, Mean, kidney ([2]; 1 H): 4.62 | Biodistribution, Mean, kidney ([2]; 3 H): 2.66 | Biodistribution, Mean, kidney ([2]; 6 H): 2.11 | Biodistribution, Mean, liver ([2]; 1 H): 3.86 | Biodistribution, Mean, liver ([2]; 3 H): 2.02 | Biodistribution, Mean, liver ([2]; 6 H): 1.54 | Biodistribution, Mean, liver ([2]; 24 H): 0.43 | Biodistribution, Mean, lungs ([2]; 1 H): 3.68 | Biodistribution, Mean, lungs ([2]; 3 H): 2.76 | Biodistribution, Mean, lungs ([2]; 6 H): 2.05 | Biodistribution, Mean, muscle ([2]; 1 H): 0.74 | Biodistribution, Mean, muscle ([2]; 3 H): 0.43 | Biodistribution, Mean, pancreas ([2]; 1 H): 2.39 | Biodistribution, Mean, spleen ([2]; 1 H): 2.83 | Biodistribution, Mean, spleen ([2]; 72 H): 1.62 | Biodistribution, Mean, thyroid ([2]; 1 H): 16.88 | Biodistribution, Mean, thyroid ([2]; 3 H): 35.71 | Biodistribution, Mean, thyroid ([2]; 6 H): 48.93 | Biodistribution, Mean, thyroid ([2]; 24 H): 88.65 | Biodistribution, Mean, thyroid ([2]; 72 H): 132.79 | Biodistribution, Mean, uvea ([2]; 1 H): 18.08 | Biodistribution, Mean, uvea ([2]; 3 H): 13.87 | Biodistribution, Mean, uvea ([2]; 6 H): 18.02 | Biodistribution, Mean, uvea ([2]; 24 H): 14.55 | Biodistribution, Mean, uvea ([2]; 72 H): 9.73

CCN(CC)CCNC(=O)c1cnc2cc(I)ccc2n1.Cl.Cl [compound 46, N-(2-diethylaminoethyl)-6-iodoquinoxaline-2-carboxamide dihydrochloride]
Faecal elimination 0-72 hours (Faeces) [1]: 18.0% | Urinary and faecal elimination 0-72 hours (Total) [1]: 88.2% | Urinary elimination 0-72 hours (Urine) [1]: 70.2% | elimination route (in words) ([1]; urinary versus faecal, 0-72 hours): predominantly in the urine | Effective period (tumour): 49.3 h | Biological period (tumour): 66.1 hours | Biodistribution, Mean, B 16 ([2]; 1 H): 17.00 | Biodistribution, Mean, B 16 ([2]; 3 H): 27.68 | Biodistribution, Mean, B 16 ([2]; 6 H): 40.70 | Biodistribution, Mean, B 16 ([2]; 24 H): 21.67 | Biodistribution, Mean, B 16 ([2]; 72 H): 12.45 | Biodistribution, Mean, BM ([2]; BM, 1 H): 4.58 | Biodistribution, Mean, GB ([2]; 6 H): 33.38 | Biodistribution, Mean, Ic ([2]; 1 H): 15.22 | Biodistribution, Mean, Ic ([2]; 3 H): 14.63 | Biodistribution, Mean, Ic ([2]; 6 H): 17.45 | Biodistribution, Mean, Sc ([2]; 1 H): 24.33 | Biodistribution, Mean, Sc ([2]; 3 H): 20.33 | Biodistribution, Mean, Sc ([2]; 6 H): 21.09 | Biodistribution, Mean, Sc ([2]; 72 H): 2.23 | tumour concentration, times higher than with BZA [2]: 16 times | Biodistribution, Mean, blood ([2]; 1 H): 3.45 | Biodistribution, Mean, blood ([2]; 3 H): 2.91 | Biodistribution, Mean, blood ([2]; 6 H): 3.09 | Biodistribution, Mean, brain ([2]; 1 H): 2.34 | Biodistribution, Mean, brain ([2]; 3 H): 1.03 | tumour concentration, % of the injected dose per gram of tumour [2]: 17 % ID/g | Biodistribution, Mean, kidney ([2]; 1 H): 16.46 | Biodistribution, Mean, kidney ([2]; 3 H): 9.30 | Biodistribution, Mean, kidney ([2]; 6 H): 7.69 | Biodistribution, Mean, liver ([2]; 1 H): 13.18 | Biodistribution, Mean, liver ([2]; 3 H): 8.87 | Biodistribution, Mean, liver ([2]; 6 H): 7.53 | Biodistribution, Mean, liver ([2]; 24 H): 1.49 | Biodistribution, Mean, lungs ([2]; 1 H): 7.83 | Biodistribution, Mean, lungs ([2]; 3 H): 5.68 | Biodistribution, Mean, lungs ([2]; 6 H): 4.46 | Biodistribution, Mean, muscle ([2]; 1 H): 2.04 | Biodistribution, Mean, muscle ([2]; 3 H): 0.86 | Biodistribution, Mean, muscle ([2]; 6 H): 0.87 | Biodistribution, Mean, pancreas ([2]; 1 H): 7.60 | Biodistribution, Mean, spleen ([2]; 1 H): 14.21 | Biodistribution, Mean, spleen ([2]; 3 H): 4.69 | Biodistribution, Mean, thyroid ([2]; 3 H): 39.76 | Biodistribution, Mean, thyroid ([2]; 6 H): 83.77 | Biodistribution, Mean, thyroid ([2]; 24 H): 94.22 | Biodistribution, Mean, uvea ([2]; 1 H): 33.82 | Biodistribution, Mean, uvea ([2]; 3 H): 24.79 | Biodistribution, Mean, uvea ([2]; 6 H): 32.30 | Biodistribution, Mean, uvea ([2]; 24 H): 32.44 | Biodistribution, Mean, uvea ([2]; 72 H): 25.26

CCCN(CCC)CCCCNC(=O)c1ccc2cc(I)ccc2n1 [compound 49, N-(4-dipropylaminobutyl)-6-iodoquinoline-2-carboxamide dihydrochloride]
Faecal elimination 0-72 hours (Faeces) [1]: 19.9% | Urinary and faecal elimination 0-72 hours (Total) [1]: 87.1% | Urinary elimination 0-72 hours (Urine) [1]: 67.2% | Effective period (tumour): 51.2 h | Biological period (tumour): 69.7 hours | Biodistribution, Mean, B 16 ([2]; 1 H): 19.07 | Biodistribution, Mean, B 16 ([2]; 3 H): 20.34 | Biodistribution, Mean, B 16 ([2]; 6 H): 27.38 | Biodistribution, Mean, B 16 ([2]; 24 H): 18.28 | Biodistribution, Mean, B 16 ([2]; 72 H): 10.86 | Biodistribution, Mean, GB ([2]; 3 H): 50.82 | Biodistribution, Mean, GB ([2]; 6 H): 55.80 | Biodistribution, Mean, Ic ([2]; 1 H): 24.45 | Biodistribution, Mean, Ic ([2]; 3 H): 23.54 | Biodistribution, Mean, Ic ([2]; 6 H): 26.72 | Biodistribution, Mean, Ic ([2]; 24 H): 1.21 | Biodistribution, Mean, Sc ([2]; 1 H): 25.53 | Biodistribution, Mean, Sc ([2]; 3 H): 24.89 | Biodistribution, Mean, Sc ([2]; 6 H): 22.21 | Biodistribution, Mean, Sc ([2]; 24 H): 2.16 | tumour concentration, times higher than with BZA [2]: 14 times | Biodistribution, Mean, blood ([2]; 1 H): 3.31 | Biodistribution, Mean, blood ([2]; 3 H): 3.47 | Biodistribution, Mean, blood ([2]; 6 H): 2.50 | tumour concentration, % of the injected dose per gram of tumour [2]: 19.1 % ID/g | Biodistribution, Mean, kidney ([2]; 1 H): 18.29 | Biodistribution, Mean, kidney ([2]; 3 H): 13.10 | Biodistribution, Mean, kidney ([2]; 6 H): 7.98 | Biodistribution, Mean, liver ([2]; 1 H): 13.79 | Biodistribution, Mean, liver ([2]; 3 H): 7.77 | Biodistribution, Mean, liver ([2]; 6 H): 3.89 | Biodistribution, Mean, lungs ([2]; 1 H): 8.33 | Biodistribution, Mean, lungs ([2]; 3 H): 6.88 | Biodistribution, Mean, lungs ([2]; 6 H): 3.34 | Biodistribution, Mean, muscle ([2]; 1 H): 2.00 | Biodistribution, Mean, muscle ([2]; 3 H): 1.41 | Biodistribution, Mean, muscle ([2]; 6 H): 0.45 | Biodistribution, Mean, pancreas ([2]; 1 H): 21.47 | Biodistribution, Mean, pancreas ([2]; 3 H): 9.71 | Biodistribution, Mean, spleen ([2]; 1 H): 18.88 | Biodistribution, Mean, spleen ([2]; 3 H): 16.71 | Biodistribution, Mean, thyroid ([2]; 1 H): 28.75 | Biodistribution, Mean, thyroid ([2]; 3 H): 125.51 | Biodistribution, Mean, thyroid ([2]; 6 H): 16.38 | Biodistribution, Mean, thyroid ([2]; 72 H): 53.26 | Biodistribution, Mean, uvea ([2]; 1 H): 21.04 | Biodistribution, Mean, uvea ([2]; 3 H): 31.76 | Biodistribution, Mean, uvea ([2]; 6 H): 28.78 | Biodistribution, Mean, uvea ([2]; 24 H): 19.22 | Biodistribution, Mean, uvea ([2]; 72 H): 19.78

CCN(CC)CCNC(=O)c1cccc2c(=O)c3cc(I)ccc3[nH]c12 [compound 84, N-(2-diethylaminoethyl)-9,10-dihydro-7-iodo-9-oxoacridine-4-carboxamide hydrochloride]
Faecal elimination 0-72 hours (Faeces) [1]: 38.4% | Urinary and faecal elimination 0-72 hours (Total) [1]: 48.8% | Urinary elimination 0-72 hours (Urine) [1]: 10.4% | Effective period (tumour): 112.5 h | Biological period (tumour): 268.9 hours | tumour concentration, times higher than with BZA [2]: 22 times
